# Assay: Observation of haloprogin / 2-octyl cyanoacrylate monomer composition after preparation
# Format: physicochemical
# Settings: 30 mg haloprogin in 2 mL 2-octyl cyanoacrylate monomer
# Description: A 2-octyl cyanoacrylate monomer composition is prepared by adding 30 mg of haloprogin, an anti-fungal agent, to 2 mL of 2-octyl cyanoacrylate monomer. The mixture is sealed in a glass vial and stirred. The characteristics of the composition are observed at about one minute after preparation and later at least twenty-four hours after preparation.
structure (smiles),measurement,setting,value
Clc1cc(Cl)c(OCC#CI)cc1Cl [haloprogin],premature polymerization of the monomer,"sealed glass vial, about one minute and at least twenty-four hours after preparation",does not cause premature polymerization
same,solubility in the monomer,observed at about one minute and at least twenty-four hours after preparation,soluble

# — patent US20030007948A1, “Adhesive treatment for skin yeast infections” (CLOSURE MEDICAL CORPORATION, priority 2001, published 2003)
